Source: ChEMBL document CHEMBL5550184, “Structure-activity relationships of middle-size cyclic peptides, KRAS inhibitors derived from an mRNA display” (Bioorg Med Chem, 2024)
Starred links: 1 amine or outer side, 2 acyl side, 3 side chain; linkers in the order of their positions; H or OH if unused. Positions of bridges follow the written chain, without caps; N, C: chain ends. Non-standard residues stand in square brackets, D forms with d. Residues, ends and D or L forms follow the SMILES beside them. *: point of attachment. hPhe(3-Cl-4-CF3) = N[C@@H](CCc1ccc(C(F)(F)F)c(Cl)c1)C(=O)O; X2 = CN([C@@H](CC(=O)[*:2])C(=O)n1cccc1)[*:1]; NMePhe(4-Cl) = CN[C@@H](Cc1ccc(Cl)cc1)C(=O)O; X1 = O=C([C@H](CC(=O)[*:2])N[*:1])n1cccc1; NMeAla(cPent) = CN[C@@H](CC1CCCC1)C(=O)O; Phe(3-Cl) = N[C@@H](Cc1cccc(Cl)c1)C(=O)O; NMeGly(cPent) = CN[C@H](C(=O)O)C1CCCC1; NMeGly(cBu) = CN[C@H](C(=O)O)C1CCC1; NMeCha = CN[C@@H](CC1CCCCC1)C(=O)O; NMeGly(cPr) = CN[C@H](C(=O)O)C1CC1; NMeCba = CN[C@@H](CC1CCC1)C(=O)O; NMeF = CN[C@@H](Cc1ccccc1)C(=O)O; NMeI = CC[C@H](C)[C@H](NC)C(=O)O; NMeD = CN[C@@H](CC(=O)O)C(=O)O; NMeL = CN[C@@H](CC(C)C)C(=O)O; NMeNle = CCCC[C@H](NC)C(=O)O; NMeNva = CCC[C@H](NC)C(=O)O; NMeV = CN[C@H](C(=O)O)C(C)C; NMeA = CN[C@@H](C)C(=O)O; Piperidide = C1CCN(*)CC1; Pyrrolidide = C1CCN(*)C1; Ac5c = NC1(C(=O)O)CCCC1; Aze = O=C(O)[C@@H]1CCN1; Sar = CNCC(=O)O

What was measured:
[1] = Apparent permeability in human Caco-2 cells incubated for 180 mins by LC-MS/MS method; assay type: ADME, cell-based
[2] = Inhibition of biotin-tagged KRAS G12D mutant (unknown origin) to recombinant His-tagged SOS1 (unknown origin) protein-protein interaction incubated for 120 mins by AlphaLISA method; parameters: species or system Homo sapiens
ASPC1 = test: Cytotoxicity against human AsPC1 cells assessed as reduction in cell viability incubated for 7 days by CellTiterGlo Luminescent Cell Viability Assay; assay type: functional, cell-based; conditions: ASPC1, 168 h

Compound | Papp at 3 h [1] | IC50 [2] | IC50 (ASPC1)
CC[C@H](C)[C@@H]1NC(=O)[C@H](CC2CCCC2)N(C)C(=O)C[C@@H](C(=O)N2CCCCC2)N(C)C(=O)[C@H](C(C)C)N(C)C(=O)C2(CCCC2)NC(=O)[C@@H]2CCCN2C(=O)[C@H](CCc2ccc(C(F)(F)F)c(Cl)c2)NC(=O)CN(C)C(=O)[C@H](CC2CCCCC2)N(C)C(=O)CN(C)C(=O)CN(C)C1=O ([NMeAla(cPent)]I[Sar][Sar][NMeCha][Sar][hPhe(3-Cl-4-CF3)]P[Ac5c][NMeV][NMeD]-Piperidide; lactam N-11) | 4.1 nm/s | 0.013 µM | 0.73 µM
CC[C@H](C)[C@@H]1NC(=O)[C@H](C)N(C)C(=O)C[C@@H](C(=O)n2cccc2)NC(=O)[C@H](CC2CCCCC2)N(C)C(=O)[C@H](Cc2ccccc2)N(C)C(=O)[C@H](Cc2ccccc2)NC(=O)[C@H](Cc2cccc(Cl)c2)NC(=O)CN(C)C(=O)[C@H](Cc2ccc(Cl)cc2)N(C)C(=O)CN(C)C(=O)CN(C)C1=O (cyclo(F[NMeF][NMeCha][X1][NMeA]I[Sar][Sar][NMePhe(4-Cl)][Sar][Phe(3-Cl)])) | 0.7 nm/s | 0.67 µM | –
CC[C@H](C)[C@@H]1NC(=O)[C@H](C)N(C)C(=O)C[C@@H](C(=O)n2cccc2)NC(=O)[C@H](C)N(C)C(=O)[C@H](Cc2ccccc2)N(C)C(=O)[C@H](Cc2ccccc2)NC(=O)[C@H](Cc2cccc(Cl)c2)NC(=O)CN(C)C(=O)[C@H](Cc2ccc(Cl)cc2)N(C)C(=O)CN(C)C(=O)CN(C)C1=O (cyclo(F[NMeF][NMeA][X1][NMeA]I[Sar][Sar][NMePhe(4-Cl)][Sar][Phe(3-Cl)])) | 1 nm/s | > 5 µM | –
CC[C@H](C)[C@@H]1NC(=O)[C@H](C)N(C)C(=O)C[C@@H](C(=O)N2CCCC2)NC(=O)[C@H](C(C)C)N(C)C(=O)[C@H](Cc2ccccc2)N(C)C(=O)[C@H](Cc2c[nH]c3ccccc23)NC(=O)[C@H](Cc2cccc(Cl)c2)NC(=O)CN(C)C(=O)[C@H](Cc2ccc(Cl)cc2)N(C)C(=O)CN(C)C(=O)CN(C)C1=O ([NMeA]I[Sar][Sar][NMePhe(4-Cl)][Sar][Phe(3-Cl)]W[NMeF][NMeV]D-Pyrrolidide; lactam N-11) | – | 0.054 µM | –
CC[C@H](C)[C@@H]1NC(=O)[C@H](C2CCCC2)N(C)C(=O)C[C@@H](C(=O)N2CCCCC2)N(C)C(=O)[C@H](C(C)C)N(C)C(=O)C2(CCCC2)NC(=O)[C@@H]2CCCN2C(=O)[C@H](CCc2ccc(C(F)(F)F)c(Cl)c2)NC(=O)CN(C)C(=O)[C@H](CC2CCCCC2)N(C)C(=O)CN(C)C(=O)CN(C)C1=O ([NMeGly(cPent)]I[Sar][Sar][NMeCha][Sar][hPhe(3-Cl-4-CF3)]P[Ac5c][NMeV][NMeD]-Piperidide; lactam N-11) | 7.5 nm/s | 0.0043 µM | 0.21 µM
CC[C@H](C)[C@@H]1NC(=O)[C@H](C)N(C)C(=O)C[C@@H](C(=O)n2cccc2)N(C)C(=O)[C@H](C(C)C)N(C)C(=O)[C@H](Cc2ccccc2)N(C)C(=O)[C@H](Cc2ccccc2)NC(=O)[C@H](Cc2cccc(Cl)c2)NC(=O)CN(C)C(=O)[C@H](Cc2ccc(Cl)cc2)N(C)C(=O)CN(C)C(=O)CN(C)C1=O (cyclo(F[NMeF][NMeV][X2][NMeA]I[Sar][Sar][NMePhe(4-Cl)][Sar][Phe(3-Cl)])) | 1.1 nm/s | 0.07 µM | –
CC[C@H](C)[C@@H]1NC(=O)[C@H](C)N(C)C(=O)C[C@@H](C(=O)n2cccc2)N(C)C(=O)[C@H]([C@@H](C)CC)N(C)C(=O)[C@H](Cc2ccccc2)N(C)C(=O)[C@H](Cc2ccccc2)NC(=O)[C@H](Cc2cccc(Cl)c2)NC(=O)CN(C)C(=O)[C@H](Cc2ccc(Cl)cc2)N(C)C(=O)CN(C)C(=O)CN(C)C1=O (cyclo(F[NMeF][NMeI][X2][NMeA]I[Sar][Sar][NMePhe(4-Cl)][Sar][Phe(3-Cl)])) | 0.9 nm/s | 0.087 µM | –
CCCC[C@H]1C(=O)N(C)[C@H](C(=O)n2cccc2)CC(=O)N(C)[C@@H](C)C(=O)N[C@@H]([C@@H](C)CC)C(=O)N(C)CC(=O)N(C)CC(=O)N(C)[C@@H](Cc2ccc(Cl)cc2)C(=O)N(C)CC(=O)N[C@@H](Cc2cccc(Cl)c2)C(=O)N[C@@H](Cc2ccccc2)C(=O)N(C)[C@@H](Cc2ccccc2)C(=O)N1C (cyclo(F[NMeF][NMeNle][X2][NMeA]I[Sar][Sar][NMePhe(4-Cl)][Sar][Phe(3-Cl)])) | 0.9 nm/s | 0.27 µM | –
CCC[C@H]1C(=O)N(C)[C@H](C(=O)n2cccc2)CC(=O)N(C)[C@@H](C)C(=O)N[C@@H]([C@@H](C)CC)C(=O)N(C)CC(=O)N(C)CC(=O)N(C)[C@@H](Cc2ccc(Cl)cc2)C(=O)N(C)CC(=O)N[C@@H](Cc2cccc(Cl)c2)C(=O)N[C@@H](Cc2ccccc2)C(=O)N(C)[C@@H](Cc2ccccc2)C(=O)N1C (cyclo(F[NMeF][NMeNva][X2][NMeA]I[Sar][Sar][NMePhe(4-Cl)][Sar][Phe(3-Cl)])) | 1.4 nm/s | 0.097 µM | –

Second part, led by results:

Papp at 3 h [1] | IC50 [2] | Compound | IC50 (ASPC1)
11.2 nm/s | 0.006 µM | CC[C@H](C)[C@@H]1NC(=O)[C@H](CC(C)C)N(C)C(=O)C[C@@H](C(=O)N2CCCCC2)N(C)C(=O)[C@H](C(C)C)N(C)C(=O)C2(CCCC2)NC(=O)[C@@H]2CCCN2C(=O)[C@H](CCc2ccc(C(F)(F)F)c(Cl)c2)NC(=O)CN(C)C(=O)[C@H](CC2CCCCC2)N(C)C(=O)CN(C)C(=O)CN(C)C1=O ([NMeL]I[Sar][Sar][NMeCha][Sar][hPhe(3-Cl-4-CF3)]P[Ac5c][NMeV][NMeD]-Piperidide; lactam N-11) | 0.12 µM
– | 0.045 µM | CC[C@H](C)[C@@H]1NC(=O)[C@H](CC(C)C)N(C)C(=O)C[C@@H](C(=O)N2CCCCC2)N(C)C(=O)[C@H](CC2CCCCC2)N(C)C(=O)C2(CCCC2)NC(=O)[C@@H]2CCCN2C(=O)[C@H](CCc2ccc(C(F)(F)F)c(Cl)c2)NC(=O)CN(C)C(=O)[C@H](CC2CCCCC2)N(C)C(=O)[C@@H]2CCN2C(=O)[C@H](C)N(C)C1=O ([NMeL]I[NMeA][Aze][NMeCha][Sar][hPhe(3-Cl-4-CF3)]P[Ac5c][NMeCha][NMeD]-Piperidide; lactam N-11) | 30 µM
– | 0.0057 µM | CCC[C@H]1C(=O)N(C)[C@H](C(=O)N2CCCCC2)CC(=O)N(C)[C@@H](CC(C)C)C(=O)N[C@@H]([C@@H](C)CC)C(=O)N(C)[C@@H](C)C(=O)N2CC[C@H]2C(=O)N(C)[C@@H](CC2CCCCC2)C(=O)N(C)CC(=O)N[C@@H](CCc2ccc(C(F)(F)F)c(Cl)c2)C(=O)N2CCC[C@H]2C(=O)NC2(CCCC2)C(=O)N1C ([NMeL]I[NMeA][Aze][NMeCha][Sar][hPhe(3-Cl-4-CF3)]P[Ac5c][NMeNva][NMeD]-Piperidide; lactam N-11) | 0.31 µM
4.6 nm/s | 0.0085 µM | CC[C@H](C)[C@@H]1NC(=O)[C@H](C2CC2)N(C)C(=O)C[C@@H](C(=O)N2CCCCC2)N(C)C(=O)[C@H](C(C)C)N(C)C(=O)C2(CCCC2)NC(=O)[C@@H]2CCCN2C(=O)[C@H](CCc2ccc(C(F)(F)F)c(Cl)c2)NC(=O)CN(C)C(=O)[C@H](CC2CCCCC2)N(C)C(=O)CN(C)C(=O)CN(C)C1=O ([NMeGly(cPr)]I[Sar][Sar][NMeCha][Sar][hPhe(3-Cl-4-CF3)]P[Ac5c][NMeV][NMeD]-Piperidide; lactam N-11) | 0.72 µM
13 nm/s | 0.0041 µM | CC[C@H](C)[C@@H]1NC(=O)[C@H](CC(C)C)N(C)C(=O)C[C@@H](C(=O)N2CCCCC2)N(C)C(=O)[C@H](C(C)C)N(C)C(=O)C2(CCCC2)NC(=O)[C@@H]2CCCN2C(=O)[C@H](CCc2ccc(C(F)(F)F)c(Cl)c2)NC(=O)CN(C)C(=O)[C@H](CC2CCCCC2)N(C)C(=O)[C@@H]2CCN2C(=O)[C@H](C)N(C)C1=O ([NMeL]I[NMeA][Aze][NMeCha][Sar][hPhe(3-Cl-4-CF3)]P[Ac5c][NMeV][NMeD]-Piperidide; lactam N-11) | 0.11 µM
7.5 nm/s | 0.0028 µM | CC[C@H](C)[C@@H]1NC(=O)[C@H](CC(C)C)N(C)C(=O)C[C@@H](C(=O)N2CCCCC2)N(C)C(=O)[C@H]([C@@H](C)CC)N(C)C(=O)C2(CCCC2)NC(=O)[C@@H]2CCCN2C(=O)[C@H](CCc2ccc(C(F)(F)F)c(Cl)c2)NC(=O)CN(C)C(=O)[C@H](CC2CCCCC2)N(C)C(=O)[C@@H]2CCN2C(=O)[C@H](C)N(C)C1=O ([NMeL]I[NMeA][Aze][NMeCha][Sar][hPhe(3-Cl-4-CF3)]P[Ac5c][NMeI][NMeD]-Piperidide; lactam N-11) | 0.048 µM
4.1 nm/s | 0.01 µM | CC[C@H](C)[C@@H]1NC(=O)[C@H](CC2CCC2)N(C)C(=O)C[C@@H](C(=O)N2CCCCC2)N(C)C(=O)[C@H](C(C)C)N(C)C(=O)C2(CCCC2)NC(=O)[C@@H]2CCCN2C(=O)[C@H](CCc2ccc(C(F)(F)F)c(Cl)c2)NC(=O)CN(C)C(=O)[C@H](CC2CCCCC2)N(C)C(=O)CN(C)C(=O)CN(C)C1=O ([NMeCba]I[Sar][Sar][NMeCha][Sar][hPhe(3-Cl-4-CF3)]P[Ac5c][NMeV][NMeD]-Piperidide; lactam N-11) | 0.79 µM
9.1 nm/s | 0.0025 µM | CC[C@H](C)[C@@H]1NC(=O)[C@H](CC(C)C)N(C)C(=O)C[C@@H](C(=O)N2CCCCC2)N(C)C(=O)[C@H](C2CCC2)N(C)C(=O)C2(CCCC2)NC(=O)[C@@H]2CCCN2C(=O)[C@H](CCc2ccc(C(F)(F)F)c(Cl)c2)NC(=O)CN(C)C(=O)[C@H](CC2CCCCC2)N(C)C(=O)[C@@H]2CCN2C(=O)[C@H](C)N(C)C1=O ([NMeL]I[NMeA][Aze][NMeCha][Sar][hPhe(3-Cl-4-CF3)]P[Ac5c][NMeGly(cBu)][NMeD]-Piperidide; lactam N-11) | 0.17 µM
– | 0.0039 µM | CC[C@H](C)[C@@H]1NC(=O)[C@H](CC(C)C)N(C)C(=O)C[C@@H](C(=O)N2CCCCC2)N(C)C(=O)[C@H](CC(C)C)N(C)C(=O)C2(CCCC2)NC(=O)[C@@H]2CCCN2C(=O)[C@H](CCc2ccc(C(F)(F)F)c(Cl)c2)NC(=O)CN(C)C(=O)[C@H](CC2CCCCC2)N(C)C(=O)[C@@H]2CCN2C(=O)[C@H](C)N(C)C1=O ([NMeL]I[NMeA][Aze][NMeCha][Sar][hPhe(3-Cl-4-CF3)]P[Ac5c][NMeL][NMeD]-Piperidide; lactam N-11) | 0.24 µM
